From US20210369710A1, “MODULATORS OF MYC FAMILY PROTO-ONCOGENE PROTEIN” (Nalo Therapeutics, priority 2019, published 2021)

How the values were obtained:
MycN Protein = target: T1, MycN Protein (Homo sapiens, UniProt P04198); test: Degradation of MycN protein, Western blot band density in cells; assay type: cell-based; conditions: HL-60 or SKNBE2 cells; 6 uL of compound (1 mM) added to 3 mL cells; 6 hours; Western blot band density (ImageJ)
T1 construct: endogenous in cells; host or cells: HL-60 or SKNBE2
T1 sequence (P04198 1-464): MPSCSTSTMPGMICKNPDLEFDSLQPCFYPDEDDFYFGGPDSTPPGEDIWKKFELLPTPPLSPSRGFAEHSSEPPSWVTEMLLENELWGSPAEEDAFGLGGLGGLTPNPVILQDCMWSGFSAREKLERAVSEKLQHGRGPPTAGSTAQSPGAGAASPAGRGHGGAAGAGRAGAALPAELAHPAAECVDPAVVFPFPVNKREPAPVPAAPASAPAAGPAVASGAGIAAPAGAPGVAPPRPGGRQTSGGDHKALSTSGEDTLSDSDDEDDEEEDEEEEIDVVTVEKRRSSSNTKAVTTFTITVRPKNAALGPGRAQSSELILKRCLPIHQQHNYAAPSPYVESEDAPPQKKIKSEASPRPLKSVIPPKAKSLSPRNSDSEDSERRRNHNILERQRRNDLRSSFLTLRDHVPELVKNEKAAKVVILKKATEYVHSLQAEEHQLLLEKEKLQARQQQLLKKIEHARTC
Method: (§1) In a T150 flask was plated either 2×10^6 of HL-60 (human leukemia cell line) or SKNBE2 (neuroblastoma cell line) cells in a total of 30 mL containing Roswell Park Memorial Institute (RPMI) 1640 Medium (Thermo Fisher, Cat. #11875-085), 10% Fetal Bovine Serum (FBS, Thermo Fisher: Cat. #10437-028), 1% Penicillin/streptomycin (Thermo Fisher: Cat. #10378016), and 1% Amophotericin B (Thermo Fisher, Cat. #15290026). The cells were split every 72 hours by reseeding the HL-60 or SKNBE2 cells, and the passage number was noted. It is noteworthy that cell cultures that were above 40 passages were not used, and most experiments were done with cells of less than 30 passages.
(§2) In a 6-well cell culture plate, a total of 3 mL of either 1×10^6 cells/mL of HL-60 or SKNBE2 cells were seeded, resulting in a total of 3×10^6 cells per well. To each well containing 3 mL of either HL-60 or SKNBE2 cell line was added 6 uL of MycN modulating compound (1 mM) and the resulting plate was shaken from left to right, and not swirled. After 6 hours, the cells were placed in a 15 mL falcon tube and spun at 500 Gs at 4° C. in a swinging bucket centrifuge. The medium was then carefully removed without disturbing the pellet. The pellet was then washed with 3 mLs of chilled phosphate buffered saline (PBS) and subjected to the spin cycle. PBS was then removed and the pellet was lysed in 200 uL of radioimmunoprecipitation (RIPA) lysis buffer (Thermo Fisher: Cat. #899000) that is supplemented with protease and phosphatase inhibitors (Thermo Fisher: Cat. #A32959). The cell lysate was then subjected to spinning in a centrifuge for 10 minutes at 13000G at 4° C. The supernatant was then carefully transferred to a fresh eppendorf tube without disturbing the pellet (˜180 uL). The protein concentration of the cell lysate was then determined by using a bicinchoninic acid (BCA assay) according to manufacturer's protocol (Thermo Fisher: Cat. #23227).
(§3) Cell lysate, approximately 25 ug-30 ug, was loaded per well in a 4-20% polyacrylamide gel (Biorad. Cat. #5671094). After running the dye front off of the gel, the gel was transferred to a nitrocellulose membrane (Biorad: Cat. #1704159) using the transblot turbo system (Biorad: Cat. #1704150) according to manufacturer's protocol. After transferring for 30 minutes, the membrane was blocked with 5% BSA for 1 hour at room temperature. The BSA was then washed off and the primary antibody of choice (1:500) was added, and the membrane was incubated with the primary antibody at 4° C. for overnight. The next morning, the primary antibody was removed and the membrane was washed with 1×-TBST for 10 minutes and repeated three more times. Following the last wash, a secondary antibody (Molecular Devices. Cat. #R8209 or R8208) was added at 1:5000 dilution and incubated for 1 hour at room temperature. Following the incubation with the secondary antibody, the membrane was washed with 1×-TBST for 10 minutes and repeated three more times. Following the last wash, the membrane was washed with de-ionized water twice and dried for at least two hours. Once the membrane is completely dry, the Molecular Devices Spectra Max western system was used to observe the bands. The western image was saved and the band density was measured with ImageJ software.

MycC Protein = target: T2, MycC Protein (Homo sapiens, UniProt P01106); test: Degradation of MycC protein, Western blot band density in cells; assay type: cell-based; conditions: HL-60 or SKNBE2 cells; 6 uL of compound (1 mM) added to 3 mL cells; 6 hours; Western blot band density (ImageJ)
T2 construct: endogenous in cells; host or cells: HL-60 or SKNBE2
T2 sequence (P01106 whole entry): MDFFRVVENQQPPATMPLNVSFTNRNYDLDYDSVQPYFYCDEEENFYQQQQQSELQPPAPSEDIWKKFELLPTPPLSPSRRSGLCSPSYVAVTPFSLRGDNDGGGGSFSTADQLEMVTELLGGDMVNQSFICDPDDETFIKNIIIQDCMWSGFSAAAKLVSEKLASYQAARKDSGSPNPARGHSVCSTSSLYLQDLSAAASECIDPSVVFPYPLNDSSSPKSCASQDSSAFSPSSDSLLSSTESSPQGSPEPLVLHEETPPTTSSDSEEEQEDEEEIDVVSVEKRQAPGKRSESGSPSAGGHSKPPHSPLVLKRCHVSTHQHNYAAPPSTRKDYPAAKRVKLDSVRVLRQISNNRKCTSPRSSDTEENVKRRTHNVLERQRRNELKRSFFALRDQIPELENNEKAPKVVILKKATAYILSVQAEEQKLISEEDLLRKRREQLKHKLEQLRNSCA
Method: as §1, §2, §3

Dmax at 2 µM (MycN Protein)	Dmax at 2 µM (MycC Protein)	Compound	% Degradation of MycN (MycN Protein)	% Degradation of MycC (MycC Protein)
< 20%	< 20%	O=C(NC1CCCC(N2CCCC2=O)C1)N[C@H]1CC[C@H](Nc2nccc(Nc3cc(C4CCCC4)[nH]n3)n2)CC1 (mixture of isomers) [Compound 27, 1-((1R,4R)-4-((4-((5-cyclopentyl-1H-pyrazol-3-yl)amino)pyrimidin-2-yl)amino)cyclohexyl)-3-(3-(2-oxopyrrolidin-1-yl)cyclohexyl)urea]	–	–
–	–	N#Cc1ccc2c(c1)CC(NC(=O)N[C@H]1CC[C@H](Nc3nccc(Nc4cc(C5CCCC5)[nH]n4)n3)CC1)C2 (mixture of isomers) [Compound 11 (Racemic), 1-(5-cyano-2,3-dihydro-1H-inden-2-yl)-3-((1R,4R)-4-((4-((5-cyclopentyl-1H-pyrazol-3-yl)amino)pyrimidin-2-yl)amino)cyclohexyl)urea]	**** (****: degradation 80-100%)	**** (****: degradation 80-100%)
–	–	CN(c1nccc(Nc2cc(C3CCCC3)[nH]n2)n1)C1CCC(NC(=O)NC2Cc3ccc(C#N)cc3C2)CC1 (racemic) [Compound 16 (Racemic), 1-(5-cyano-2,3-dihydro-1H-inden-2-yl)-3-((1R,4R)-4-((4-((5-cyclopentyl-1H-pyrazol-3-yl)amino)pyrimidin-2-yl)(methyl)amino)cyclohexyl)urea]	**** (****: degradation 80-100%)	**** (****: degradation 80-100%)
–	–	CN(c1nccc(Nc2cc(C3CCCC3)[nH]n2)n1)C1CCC(NC(=O)N[C@H]2CCC[C@@H](C(F)(F)F)C2)CC1 (mixture of isomers) [Compound 121 (Racemic), 1-((1R,4S)-4-((4-((5-cyclopentyl-1H-pyrazol-3-yl)amino)pyrimidin-2-yl)(methyl)amino)cyclohexyl)-3-((1S,3R)-3-(trifluoromethyl)cyclohexyl)urea]	*** (***: degradation 50-79%)	*** (***: degradation 50-79%)
20 to 49%	< 20%	CC(=O)N1CCC(NC(=O)N[C@H]2CC[C@H](Nc3nccc(Nc4cc(C5CCCC5)[nH]n4)n3)CC2)CC1 [Compound 2, 1-(1-acetylpiperidin-4-yl)-3-((1R,4R)-4-((4-((5-cyclopentyl-1H-pyrazol-3-yl)amino)pyrimidin-2-yl)amino)cyclohexyl)urea]	–	–
20 to 49%	50 to 79%	CS(=O)(=O)c1ccc2c(c1)CC(NC(=O)N[C@H]1CC[C@H](Nc3nccc(Nc4cc(C5CCCC5)[nH]n4)n3)CC1)C2 (stereo partly drawn) [Compound 3, 1-((1R,4R)-4-((4-((5-cyclopentyl-1H-pyrazol-3-yl)amino)pyrimidin-2-yl)amino)cyclohexyl)-3-(5-(methylsulfonyl)-2,3-dihydro-1H-inden-2-yl)urea]	–	–
20 to 49%	80 to 100%	CC(NC(=O)N[C@H]1CC[C@H](Nc2nccc(Nc3cc(C4CCCC4)[nH]n3)n2)CC1)c1ccccn1 (some centres unmarked) [Compound 4]	–	–
20 to 49%	< 20%	N#Cc1ccc2c(c1)CC(NC(=O)N[C@H]1CC[C@H](Nc3nccc(Nc4cc(C5CCOC5)[nH]n4)n3)CC1)C2 (stereo partly drawn) [Compound 5, 1-(5-cyano-2,3-dihydro-1H-indene-2-yl)-3-((1R,4R)-4-((4-((5-(tetrahydrofuran-3-yl)-1H-pyrazol-3-yl)amino)pyrimidine-2-yl)amino)cyclohexyl)urea]	–	–
–	–	Cc1cc(Nc2ccnc(NC3CCC(N)CC3)n2)n[nH]1 [Compound 6, N^2-((1R,4R)-4-aminocyclohexyl)-N^4-(5-methyl-1H-pyrazol-3-yl)pyrimidine-2,4-diamine]	* (*: degradation <20%)	** (**: degradation 20-49%)
< 20%	20 to 49%	CCc1cc(Nc2ccnc(N[C@H]3CC[C@H](NC(=O)NC4Cc5ccc(C#N)cc5C4)CC3)n2)n[nH]1 (stereo partly drawn) [Compound 8, 1-(5-cyano-2,3-dihydro-1H-inden-2-yl)-3-((1R,4R)-4-((4-((5-ethyl-1H-pyrazol-3-yl)amino)pyrimidin-2-yl)amino)cyclohexyl)urea]	–	–
–	–	N#Cc1ccc2c(c1)CC(NC(=O)N[C@H]1CC[C@H](Nc3nccc(Nc4cc(C5CCCC5)[nH]n4)n3)CC1)C2 (stereo partly drawn) [Compound 11 (Fraction 1), 1-(5-cyano-2,3-dihydro-1H-inden-2-yl)-3-((1R,4R)-4-((4-((5-cyclopentyl-1H-pyrazol-3-yl)amino)pyrimidin-2-yl)amino)cyclohexyl)urea]	** (**: degradation 20-49%)	**** (****: degradation 80-100%)
20 to 49%	–	O=C(Nc1cccc(C(F)(F)F)c1)N[C@@H]1CC[C@@H](Nc2nccc(Nc3cc(C4CCCC4)[nH]n3)n2)C1 [Compound 82]	–	–
20 to 49%	–	CN1CCC(NC(=O)N[C@H]2CC[C@H](Nc3nccc(Nc4cc(C5CCCC5)[nH]n4)n3)CC2)CC1 [Compound 97, 1-((1R,4R)-4-((4-((5-cyclopentyl-1H-pyrazol-3-yl)amino)pyrimidin-2-yl)amino)cyclohexyl)-3-(1-methylpiperidin-4-yl)urea]	–	–
< 20%	–	CN(C)C(=N)c1ccc2c(c1)CC(NC(=O)N[C@H]1CC[C@H](Nc3nccc(Nc4cc(C5CCCC5)[nH]n4)n3)CC1)C2 (some centres unmarked) [Compound 98]	–	–
< 20%	–	N=C(NC1COC1)c1ccc2c(c1)CC(NC(=O)N[C@H]1CC[C@H](Nc3nccc(Nc4cc(C5CCCC5)[nH]n4)n3)CC1)C2 (some centres unmarked) [Compound 99]	–	–
< 20%	–	O=C(NC1Cc2ccc(C3=NCC(O)CN3)cc2C1)N[C@H]1CC[C@H](Nc2nccc(Nc3cc(C4CCCC4)[nH]n3)n2)CC1 (some centres unmarked) [Compound 100]	–	–
50 to 79%	–	CN(c1nccc(Nc2cc(C3CCCC3)[nH]n2)n1)[C@H]1CC[C@H](NC(=O)Nc2cccc(C(F)(F)F)c2)CC1 [Compound 146, 1-((1R,4R)-4-((4-((5-cyclopentyl-1H-pyrazol-3-yl)amino)pyrimidin-2-yl)(methyl)amino)cyclohexyl)-3-(3-(trifluoromethyl)phenyl)urea]	–	–
80 to 100%	–	CN(c1nccc(Nc2cc(C3CC3)[nH]n2)n1)[C@H]1CC[C@H](NC(=O)Nc2cccc(C(F)(F)F)c2)CC1 [Compound 147, 1-((1R,4R)-4-((4-((5-cyclopropyl-1H-pyrazol-3-yl)amino)pyrimidin-2-yl)(methyl)amino)cyclohexyl)-3-(3-(trifluoromethyl)phenyl)urea]	–	–
50 to 79%	–	CN(c1nccc(Nc2cc(C3CC3)[nH]n2)n1)[C@H]1CC[C@H](NC(=O)NC2Cc3cc(F)c(F)cc3C2)CC1 [Compound 151, 1-((1R,4R)-4-((4-((5-cyclopropyl-1H-pyrazol-3-yl)amino)pyrimidin-2-yl)(methyl)amino)cyclohexyl)-3-(5,6-difluoro-2,3-dihydro-1H-inden-2-yl)urea]	–	–

Compound	Dmax at 2 µM (MycN Protein)	Dmax at 2 µM (MycC Protein)	% Degradation of MycN (MycN Protein)	% Degradation of MycC (MycC Protein)
O=C(NC1CC2CCC(C1)N2C1CC1)N[C@H]1CC[C@H](Nc2nccc(Nc3cc(C4CCCC4)[nH]n3)n2)CC1 (stereo partly drawn) [Compound 61, 1-((1R,4R)-4-((4-((5-cyclopentyl-1H-pyrazol-3-yl)amino)pyrimidin-2-yl)amino)cyclohexyl)-3-(8-cyclopropyl-8-azabicyclo[3.2.1]octan-3-yl)urea]	< 20%	–	–	–
O=C(NC12CCN(CC1)CC2)N[C@H]1CC[C@H](Nc2nccc(Nc3cc(C4CCCC4)[nH]n3)n2)CC1 [Compound 68]	20 to 49%	–	–	–
